Test results published in patent US9586900B2, “Pyrrolone or pyrrolidinone melanin concentrating hormone receptor-1 antagonists” (BRISTOL-MYERS SQUIBB COMPANY, priority 2012, dated 2017).

biological target: human melanin concentrating hormone receptor (MCHR1) (Homo sapiens (Human), UniProt Q99705, A5T/E4Q); experiment: Radioligand binding assay for assessment of MCHR1 activity; conditions: Table A; membranes of HEK-293 cells expressing mutated (E4Q, A5T) hMCHR1; competition with [Phe13,[125I]Tyr19]-MCH
Sequence (Q99705 whole entry E4Q/A5T): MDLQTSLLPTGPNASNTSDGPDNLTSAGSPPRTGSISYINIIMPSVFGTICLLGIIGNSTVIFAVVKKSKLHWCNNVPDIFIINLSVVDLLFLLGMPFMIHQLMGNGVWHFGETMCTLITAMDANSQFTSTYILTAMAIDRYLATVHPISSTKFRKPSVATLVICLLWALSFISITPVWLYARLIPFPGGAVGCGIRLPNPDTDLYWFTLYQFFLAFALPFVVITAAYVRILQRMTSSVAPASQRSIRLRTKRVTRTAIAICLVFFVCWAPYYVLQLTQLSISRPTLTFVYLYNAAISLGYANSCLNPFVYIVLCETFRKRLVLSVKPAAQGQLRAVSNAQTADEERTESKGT
Experimental: Radioligand Binding Assay for Assessment of MCHR1 Activity
An in vitro binding assay was used to determine the compound Ki value or ability to antagonize binding of a peptide agonist to the human melanin concentrating hormone receptor (MCHR1). […] Binding experiments were carried out with 0.5-1.0 μg of membrane protein incubated in a total of 0.2 mL in 25 mM HEPES (pH 7.4) with 10 mM MgCl2, 2 mM EGTA, and 0.1% BSA (Binding Buffer) for 90 min. For competition binding assays, reactions were carried out in the presence of with 0.06-0.1 nM [Phe^13, [^125I]Tyr^19]-MCH and increasing concentrations of unlabeled test molecules. […] Filters were dried, 0.05 mL MicroScint 20 was added to each well and radioactivity was subsequently quantified by scintillation counting on a TOPCOUNT® microplate scintillation counter (Packard). Inhibitory constants were determined by nonlinear least squares analysis using a four parameter logistic equation.

| Ki [nM] | SMILES |
| --- | --- |
| 6000 | COc1cc(N2CC[C@H](Oc3ccc(C(F)(F)F)cc3)C2=O)ccc1OCC(C)(C)O [Example 10, (S)-1-(4-(2-Hydroxy-2-methylpropoxy)-3-methoxyphenyl)-3-(4-(trifluoromethyl)phenoxy)pyrrolidin-2-one] |
| 23 | COc1cc(N2CC[C@@H](Oc3ccc(C(F)(F)F)cc3)C2=O)ccc1OCC(C)(C)O [Example 9, (R)-1-(4-(2-Hydroxy-2-methylpropoxy)-3-methoxyphenyl)-3-(4-(trifluoromethyl)phenoxy)pyrrolidin-2-one] |

same assay, conditions: Table C; membranes of HEK-293 cells expressing mutated (E4Q, A5T) hMCHR1; competition with [Phe13,[125I]Tyr19]-MCH

| SMILES | Ki [nM] |
| --- | --- |
| Cc1cc(N2CCC(Oc3ccc(-c4ccccc4F)cc3)C2=O)ccc1OCCS(C)(=O)=O (stereo not shown) [Example 107] | 5 |
| Cc1cc(N2CC[C@H](Oc3ccc(-c4ccccc4)cc3)C2=O)ccc1OCCS(C)(=O)=O [Example 106, (S)-3-(Biphenyl-4-yloxy)-1-(3-methyl-4-(2-(methylsulfonyl)ethoxy)phenyl)pyrrolidin-2-one] | 636 |
| Cc1cc(N2CCC(Oc3ccc(-c4ccncc4)cc3)C2=O)ccc1OCCS(C)(=O)=O (stereo not shown) [Example 113, 1-(3-Methyl-4-(2-(methylsulfonyl)ethoxy)phenyl)-3-(4-(pyridin-4-yl)phenoxy)pyrrolidin-2-one] | 55 |
| Cc1cc(N2CCC(Oc3ccc(OC(F)(F)F)cc3)C2=O)ccc1OCC[S+](C)[O-] (stereo not shown) [Example 101, 1-(3-Methyl-4-(2-(methylsulfinyl)ethoxy)phenyl)-3-(4-(trifluoromethoxy)phenoxy)pyrrolidin-2-one] | 77 |
| Cc1cc(N2CCC(Oc3ccc(C4CC4)cc3)C2=O)ccc1OCCS(C)(=O)=O (stereo not shown) [Example 114] | 7 |
| Cc1cc(N2CC[C@@H](Oc3ccc(-c4ccccc4)cc3)C2=O)ccc1OCCS(C)(=O)=O [Example 105, (R)-3-(Biphenyl-4-yloxy)-1-(3-methyl-4-(2-(methylsulfonyl)ethoxy)phenyl)pyrrolidin-2-one] | 2 |

same assay, conditions: Table D; membranes of HEK-293 cells expressing mutated (E4Q, A5T) hMCHR1; competition with [Phe13,[125I]Tyr19]-MCH

| Ki [nM] | SMILES |
| --- | --- |
| 3 | COc1cc(N2CC=C(Oc3ccc(C4CC4)cc3)C2=O)ccc1OCC(C)(C)O [Example 116, 3-(4-Cyclopropylphenoxy)-1-(4-(2-hydroxy-2-methylpropoxy)-3-methoxyphenyl)-1H-pyrrol-2(5H)-one] |
| 10 | COc1cc(N2CC=C(Oc3ccc(C4CC4)cc3)C2=O)ccc1O [Example 120] |
